The record followed here is patent US3979513A, “1'-Substituted-9,10-dihydroanthracene-9-spiro-4'-piperidine derivatives” (priority 1974, dated 1976).

The data set in a line: acute toxicity (LD50) in mice. The conditions noted are these: mouse, in vivo. As for the experimental part: The corresponding intravenous LD50 is 40 mg./kg. Other LD50 values for compounds of the invention when dosed intravenously are as follows: […]
[1] abbreviates: iv, dosed intravenously (table 1), read-out: LD50.

SMILES strings stand for the structures. Read-outs that look alike come from different tables or passages of the source.

As usually defined, the LD50 is the dose expected to kill half of the subjects tested. Turning to `CN1CCC2(CC1)c1ccccc1C(O)c1ccccc12` [10-hydroxy-1'-methyl-9,10-dihydroanthracene-9-spiro-4'-piperidine], the LD50 reads like this: (mice, intravenous, read-out: intravenous LD50) 40 mg/kg; (mice, oral, read-out: oral LD50) more than 250 mg/kg.

Take `Cc1ccc2c(c1)C1(CCN(C)CC1)c1ccccc1C2O` (centres unmarked) [Me 2-Me H OH H, 1',2-dimethyl-10-hydroxy-9,10-dihydroanthracene-9-spiro-4'-piperidine]: the LD50 under setting [1] was 37 mg/kg.

Take `CC(=O)Oc1cccc2c1Cc1ccccc1C21CCN(C)CC1` [Me 4-OAc H H H, 4-acetoxy-1'-methyl-9,10-dihydroanthracene-9-spiro-4'-piperidine]: under setting [1], the LD50 turned out to be 43 mg/kg.

Regarding `CN1CCC2(CC1)c1ccccc1C(C)(O)c1c(O)cccc12` (centres unmarked) [Me 4-OH H OH Me, 4,10-dihydroxy-1',10-dimethyl-9,10-dihydroanthracene-9-spiro-4'-piperidine], under setting [1], the LD50 stood at 25 mg/kg.
